In data set [1] the test system is root-knot nematode (Meloidogyne incognita). As to the kind of experiment: Initial Root-Knot Nematicidal Activity. The format is in vivo. Particulars: 336 h, read-out: Percent Control; for pest or weed control at 0.313 ppm: Table 2, Application Rate 0.313 ppm; for pest or weed control at 0.625 ppm: Table 2, Application Rate 0.625 ppm; for pest or weed control at 1.25 ppm: Table 2, Application Rate 1.25 ppm; for pest or weed control at 0.312 ppm: Table 2, Application Rate 0.312 ppm. How it is done: (§1) Compounds of this invention were tested as follows for nematicidal and anthelmintic activity as dust formulations (initial and residual activity) and as acetone/water formulations (systemic activity). The formulations are described above.
The activity against root-knot nematode (Meloidogyne incognita) was determined by incorporating the compound of the invention in nematode infested soil at rates in the range of 10 ppm to 0.078 ppm of compound. Several tomato or cucumber seedlings were planted in the nematode infested soil. Two weeks after planting the test pots were evaluated to ascertain the degree of galling (swelling) on the roots of the plants, indicating the control provided by the test chemical.
The results expressed as precent control (determined by knot index) are set forth as averages in Table 2 (appended). Knot index is a numerical designation assigned at evaluation, having the following meanings:
Percent control is related to knot index as follows:
When the Knot Index is between 0 and 1 it is further subdivided as follows to indicate how close the percent control is to 75% or 100%: […]

The subject of another data set is Caenorhabditis elegans. As to the kind of experiment: C. Elegans Nematode Screening Test and Evaluation (in-vitro). Particulars: for inhibition at 5 ppm / mortality at 5 ppm / inhibition at 1.25 ppm / mortality at 1.25 ppm / inhibition at 2.5 ppm / mortality at 2.5 ppm: Caenorhabditis elegans; for inhibition at 5 ppm / inhibition at 1.25 ppm / inhibition at 2.5 ppm: read-out: Percent Inhibition of Reproduction; for mortality at 5 ppm / mortality at 1.25 ppm / mortality at 2.5 ppm: read-out: Percent Mortality. How it is done: This in-vitro test using the free-living nematode Caenorhabditis elegans, is a modification of the assay developed by Simpkin and Coles, J. Chem. Tech. […] One milliliter of a test medium consisting of 5 mg ampicillin, 10,000 units of mycostatin and 10 ml of a dense suspension of Escherichia coli per 100 ml of a buffer solution, was pipetted into each well of a 24-well microtiter plate. The candidate nematicide, suspended at the appropriate concentration in dimethylsulfoxide, was added to the wells in […] volumes. Each rate of application was replicated two to three times. After thorough mixing of the contents of each well, 50 to 100 μl of a nematode suspension in a buffer was added so that each well received 10-15 nematodes. After the nematodes were added, the microtiter plates were incubated at 20° C. for 5-6 days.
The effect of the candidate nematicide on the survival and the reproduction of C. elegans was then evaluated by comparison of the level of population developed in the treated wells with that in untreated wells. Specific effects on population development, such as reduced egg hatch or molting disruption, were noted if they were evident.

The next data set has as its system root-knot nematode. As to the kind of experiment: Soil Mobility against root-knot nematode. The class given is in vivo, Meloidogyne incognita. To be noted: 336 h, Table 7a, 5% dust, 5 ppm, read-out: Percent Control. How it is done:
as §1
The ability of nematicidal compounds of the invention to move through nematode-infested soil […] infested soil, and subsequently eluting the soil with 15 cm of water (equivalent to 15 cm of rainfall) into a series of two or more pots of untreated, but nematode-infested, soil. Specifically, the pots were 8 cm diameter plastic pots containing a 10 cm^3 layer of sand over a coarse grade filter paper disc. Sufficient soil was placed over the sand to fill the pots, and a second filter paper disc was placed over the soil. Each test compound-treated pot was nested over a series of two or more pots containing untreated, but nematode-infested soil, also containing sand filter paper discs as described for the treated soil pots. Fifteen cm of water was slowly dripped into the top pots and the pots were allowed to drain for 16-18 hours to remove excess water. The top filter of each pot was then removed and the pots were planted with a cucumber or tomato seedling. […] "Knot Index" and "Percent Control" are as defined in the initial root-knot nematode tests above.

Where [2] appears, read: Table 2, Application Rate 2.5 ppm.
Where [3] appears, read: Table 2, Application Rate 5.0 ppm.
Setting [4] is: Table 2, Application Rate 10.0 ppm.

The values below come from patent publication US4952580A, “Pesticidal polyhaloalkene derivatives” (priority 1988, dated 1990).

Where two headings read alike, the source gives them in different places.

For the molecule `O=C(OCCC(F)=C(F)F)C(F)(F)C(F)(F)C(F)(F)F` [Compound 3, (3,4,4-trifluoro-3-butenyl) heptafluorobutyrate], in data set [1], the pest or weed control at 2.5 ppm worked out at 71%, the pest or weed control at 5 ppm turned out to be 83% and the pest or weed control at 10 ppm stood at 95%.
For the molecule `O=C(OCCC(F)=C(F)F)c1ccc(Cl)cc1` [Compound 4, (3,4,4-trifluoro-3-butenyl) 4-chlorobenzoate], in data set [1], the pest or weed control at 0.313 ppm was 38%, the pest or weed control at 0.625 ppm stood at 44% and the pest or weed control at 1.25 ppm is 56%. In addition, in data set [1] (setting [2]), the pest or weed control at 2.5 ppm was 99%.
For `O=C1CCC(=O)N1CCC(F)=C(F)F` [Compound 5, N-(3,4,4-trifluoro-3-butenyl)succinimide], in data set [1], the pest or weed control at 0.313 ppm worked out at 0%, the pest or weed control at 0.625 ppm was 6% and the pest or weed control at 1.25 ppm is 70%. The pest or weed control at 2.5 ppm in data set [1] (setting [2]) amounted to 81%.
In the case of `OCCCC(F)=C(F)F` [Compound 7, 4,5,5-trifluoro-4-penten-1-ol], the pest or weed control at 2.5 ppm in data set [1] (setting [2]) worked out at 25%. For the same molecule, the pest or weed control at 5 ppm in data set [1] (setting [3]) stood at 44%. Besides, the pest or weed control at 10 ppm in data set [1] (setting [4]) is 79%.
Turning to `FC(F)=C(F)CCSCc1cc2ccccc2s1` [Compound 11, 2-(3,4,4-trifluoro-3-butenylthiomethyl)-thianaphthene], in data set [1], the pest or weed control at 0.625 ppm came to 0% and the pest or weed control at 1.25 ppm was determined as 67%. Also, in data set [1] (setting [2]), the pest or weed control at 2.5 ppm is 78%. Also, in data set [1] (setting [3]), the pest or weed control at 5 ppm was 83%.
For the molecule `C#CCSc1nnc(SCCC(F)=C(F)F)s1` [Compound 14, 2-propargylthio-5-(3,4,4-trifluoro-3-butenylthio)-1,3,4-thiadiazole], in data set [1], the pest or weed control at 0.313 ppm was found to be 0%, the pest or weed control at 0.625 ppm amounted to 0% and the pest or weed control at 1.25 ppm turned out to be 25%. Besides, the pest or weed control at 2.5 ppm in data set [1] (setting [2]) stood at 83%.
As for `O=C(OCCC(F)=C(F)F)C(F)(F)C(F)(F)F` [Compound 19, (3,4,4-trifluoro-3-butenyl) pentafluoropropionate, mono diethyl etherate], the pest or weed control at 2.5 ppm in data set [1] (setting [2]) stood at 58%. The pest or weed control at 5 ppm in data set [1] (setting [3]) came out at 75%. Also, the pest or weed control at 10 ppm in data set [1] (setting [4]) is 69%.
As for `O=C(OCCC(F)=C(F)F)c1cccs1` [Compound 20], in data set [1], the pest or weed control at 0.313 ppm amounted to 0%, the pest or weed control at 0.625 ppm was 6% and the pest or weed control at 1.25 ppm came to 63%. For the same molecule, the pest or weed control at 2.5 ppm in data set [1] (setting [2]) came out at 98%.
For `O=C(OCCC(F)=C(F)F)c1ccc[nH]1` [Compound 22, (3,4,4-trifluoro-3-butenyl) 2-pyrrolecarboxylate] the same measures were 0%, 0%, 44% and 96%.
In the case of `O=C(CSC1=NCCS1)OCCC(F)=C(F)F` [Compound 23, (3,4,4-trifluoro-3-butenyl) [2-(4,5-dihydrothiazolyl)thio]acetate], the pest or weed control at 2.5 ppm in data set [1] (setting [2]) is 76%. Further, the pest or weed control at 5 ppm in data set [1] (setting [3]) is 84%. Besides, the pest or weed control at 10 ppm in data set [1] (setting [4]) came out at 96%.
The matching figures for `O=C1c2ccccc2S(=O)(=O)N1CCC(F)=C(F)F` [Compound 24, N-(3,4,4-trifluoro-3-butenyl)saccharine]: 19%, 63% and 78%.
Broadly, the inhibition is the change of the read-out against control, counted positive when it falls. What is called mortality is the percentage killed. As to `O=[N+]([O-])c1ccc(CSc2nsc(SCCC(F)=C(F)F)n2)cc1` [Compound 26, 3-(4-nitrophenylmethylthio)-5-(3,4,4-trifluoro-3-butenylthio)-1,2,4-thiadiazole], in data set [1], the pest or weed control at 0.312 ppm was 0%, the pest or weed control at 0.625 ppm is 0% and the pest or weed control at 1.25 ppm worked out at 63%. Also, in data set [1] (setting [2]), the pest or weed control at 2.5 ppm is 86%. In the data set on Caenorhabditis elegans (Table 9 screen, 5 ppm), the inhibition at 5 ppm is 100% and the mortality at 5 ppm was found to be 100%. In addition, the mortality at 5 ppm in the data set with Caenorhabditis elegans (Table 10 evaluation, 5 ppm) was found to be 100%. In the data set with Caenorhabditis elegans (Table 10 evaluation, 1.25 ppm), the inhibition at 1.25 ppm was 100% and the mortality at 1.25 ppm was 100%. In addition, in the data set on Caenorhabditis elegans (Table 10 evaluation, 2.5 ppm), the inhibition at 2.5 ppm was determined as 100% and the mortality at 2.5 ppm was determined as 100%.
Turning to `FC(F)=C(F)CCSc1nnc(-c2ccc(Cl)cc2)s1` [Compound 37, 2-(4-chlorophenyl)-5-(3,4,4-trifluoro-3-butenylthio)-1,3,4-thiadiazole], the pest or weed control at 0.078 ppm in data set [1] (Table 2, Application Rate 0.078 ppm) was 0%. Moreover, the pest or weed control at 0.156 ppm in data set [1] (Table 2, Application Rate 0.156 ppm) turned out to be 0%. In data set [1], the pest or weed control at 0.312 ppm was found to be 0% and the pest or weed control at 0.625 ppm amounted to 0%. Also, in the data set on Caenorhabditis elegans (Table 9 screen, 5 ppm), the inhibition at 5 ppm came to 100% and the mortality at 5 ppm was determined as 100%. Moreover, the mortality at 5 ppm in the data set with Caenorhabditis elegans (Table 10 evaluation, 5 ppm) is 100%. Further, in the data set on Caenorhabditis elegans (Table 10 evaluation, 1.25 ppm), the inhibition at 1.25 ppm is 100% and the mortality at 1.25 ppm stood at 100%. In the data set on Caenorhabditis elegans (Table 10 evaluation, 2.5 ppm), the inhibition at 2.5 ppm stood at 100% and the mortality at 2.5 ppm turned out to be 100%.
As for `FC(F)=C(F)CCSc1nc(Cc2ccc(F)cc2)no1` [Compound 38, 3-(4-fluorophenylmethyl)-5-(3,4,4-trifluoro-3-butenylthio)-1,2,4-oxadiazole], the pest or weed control at 0.312 ppm in data set [1] was found to be 63%. Moreover, the pest or weed control at 0.625 ppm in data set [1] came out at 76%. Further, the pest or weed control at 1.25 ppm in data set [1] turned out to be 96%. For the same molecule, the pest or weed control at 2.5 ppm in data set [1] (setting [2]) was 98%. Moreover, the pest or weed control at 5 ppm with root-knot nematode (BOTTOM container), in the data set on root-knot nematode (MIDDLE container) and with root-knot nematode (TOP container) was 0% in each case.
`FC(F)=C(F)CCSc1nc(-c2ccc(Cl)cc2)no1` [Compound 39, 3-(4-chlorophenyl)-5-(3,4,4-trifluoro-3-butenylthio)-1,2,4-oxadiazole]: in data set [1], the pest or weed control at 0.312 ppm worked out at 19%, the pest or weed control at 0.625 ppm was 84% and the pest or weed control at 1.25 ppm was 98%. In addition, the pest or weed control at 2.5 ppm in data set [1] (setting [2]) was found to be 100%. In the data set on Caenorhabditis elegans (Table 9 screen, 5 ppm), the inhibition at 5 ppm was 100% and the mortality at 5 ppm amounted to 100%. Further, in the data set on Caenorhabditis elegans (Table 10 evaluation, 5 ppm), the mortality at 5 ppm turned out to be 100% and the “Percent Mortality” value turned out to be 100%. In the data set with Caenorhabditis elegans (Table 10 evaluation, 1.25 ppm), the inhibition at 1.25 ppm stood at 100%, the mortality at 1.25 ppm stood at 67% and the “Percent Mortality” value worked out at 58%. In the data set on Caenorhabditis elegans (Table 10 evaluation, 2.5 ppm), the inhibition at 2.5 ppm was found to be 100%, the mortality at 2.5 ppm came to 100% and the “Percent Mortality” value stood at 100%.
Turning to `O=[N+]([O-])c1ccc(-c2noc(SCCC(F)=C(F)F)n2)cc1` [Compound 40, 3-(4-nitrophenyl)-5-(3,4,4-trifluoro-3-butenylthio)-1,2,4-oxadiazole], in data set [1], the pest or weed control at 0.312 ppm was 0%, the pest or weed control at 0.625 ppm was 56% and the pest or weed control at 1.25 ppm worked out at 84%. Moreover, the pest or weed control at 2.5 ppm in data set [1] (setting [2]) turned out to be 99%. Also, in the data set on Caenorhabditis elegans (Table 10 evaluation, 5 ppm), the inhibition at 5 ppm turned out to be 100% and the mortality at 5 ppm was 100%. In the data set on Caenorhabditis elegans (Table 10 evaluation, 1.25 ppm), the inhibition at 1.25 ppm came out at 100% and the mortality at 1.25 ppm is 100%. In the data set with Caenorhabditis elegans (Table 10 evaluation, 2.5 ppm), the inhibition at 2.5 ppm amounted to 100% and the mortality at 2.5 ppm was 100%.
